Experimental data published in publication PMC11830721 (Frontiers in Pharmacology, 2025).

Tests used:
FLT3-ITD [1] = target: T1, FLT3-ITD (Homo sapiens, UniProt P36888, ITD); test: ADP-Glo kinase-inhibition assay; assay type: biochemical; settings: ADP-Glo; ATP 100 μM; FLT3-ITD 10 ng/μL
T1 sequence (P36888 27-993): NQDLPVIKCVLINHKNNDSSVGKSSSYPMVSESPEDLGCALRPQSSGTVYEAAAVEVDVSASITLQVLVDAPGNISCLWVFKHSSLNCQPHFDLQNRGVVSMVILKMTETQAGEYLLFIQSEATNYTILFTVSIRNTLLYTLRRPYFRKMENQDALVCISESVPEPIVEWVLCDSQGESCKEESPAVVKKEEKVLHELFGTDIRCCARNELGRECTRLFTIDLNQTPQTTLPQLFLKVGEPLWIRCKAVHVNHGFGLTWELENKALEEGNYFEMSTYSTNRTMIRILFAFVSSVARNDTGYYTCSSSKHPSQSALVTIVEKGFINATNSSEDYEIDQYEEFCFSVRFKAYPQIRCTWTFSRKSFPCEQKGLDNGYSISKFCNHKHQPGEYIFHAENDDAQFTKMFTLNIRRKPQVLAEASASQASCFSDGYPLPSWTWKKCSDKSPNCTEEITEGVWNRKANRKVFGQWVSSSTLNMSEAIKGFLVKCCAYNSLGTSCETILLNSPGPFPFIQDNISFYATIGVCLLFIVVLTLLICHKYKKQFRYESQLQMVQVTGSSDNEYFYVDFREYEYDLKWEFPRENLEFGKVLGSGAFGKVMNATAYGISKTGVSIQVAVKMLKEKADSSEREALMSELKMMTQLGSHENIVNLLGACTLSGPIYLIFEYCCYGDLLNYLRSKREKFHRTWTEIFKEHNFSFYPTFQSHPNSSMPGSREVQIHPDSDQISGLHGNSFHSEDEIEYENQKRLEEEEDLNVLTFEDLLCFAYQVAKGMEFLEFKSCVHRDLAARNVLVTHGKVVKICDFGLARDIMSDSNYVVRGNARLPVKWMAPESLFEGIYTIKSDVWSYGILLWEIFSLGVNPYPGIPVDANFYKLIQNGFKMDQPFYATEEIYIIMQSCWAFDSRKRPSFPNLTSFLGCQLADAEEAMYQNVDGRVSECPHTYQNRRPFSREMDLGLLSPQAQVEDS
Experimental: Subsequently, the kinase detection reagent was added and incubated for an additional 15 min. Finally, the mixture was incubated for 1 h, and relative luminescence units (RLU) were measured.
Moreover, we extended the kinase selectivity profiling of FLIN-4 to evaluate its inhibitory activity against 60 non-target kinases.

MV4-11 cells = test: MTT anti-proliferation assay, MV4-11; assay type: cell-based; settings: Homo sapiens, 72-h treatment
Experimental: In addition, the normal hematopoietic cell line was COLO 829BL from ATCC. The cells were maintained in RPMI-1640 medium supplemented with 10% FBS, and 1% penicillin and streptomycin. The cells were cultured in an incubator at 37°C with 5% CO2. […] The high-performance liquid chromatography (HPLC) spectra data for each compound are provided in the (Supplementary Figures S1–S6).
The effects of the test compounds on MV4-11, NB4, and COLO 829BL cell lines were quantitatively evaluated according to the methods previously reported ([Zhou et al., 2022]).

FLT3-ITD [2] = target: T1, FLT3-ITD; test: Microscale thermophoresis (MST) binding affinity; settings: 50 mM Tris, 230 mM NaCl, pH 7.0, labeled protein 50 nM
Experimental: The protein was labeled with a fluorescence tag utilizing a Lys Labeling Kit (NanoTemper), with a final concentration of 50 nM being achieved. Adhering to the manufacturer’s guidelines, the compounds were titrated from an initial concentration of 12.5 μM with a 1:1 dilution ratio. Next, each sample was centrifuged at 15,000 rpm for 5 min, followed by loading into standard glass capillaries for MST analysis.

| SMILES | IC50 (FLT3-ITD [1]) | IC50 (MV4-11 cells) | Kd (FLT3-ITD [2]) |
| --- | --- | --- | --- |
| CCc1nc(C(N)=O)c(Nc2ccc(N3CCC(NC4CCCCC4)CC3)c(OC)c2)nc1NC1CCOC(C(O)CO)C1 (stereo not drawn) [FLIN-3] | 2.85 ± 0.22 nM | 3.03 ± 0.27 nM | 2.19 ± 0.33 nM |
| CCc1nc(C(N)=O)c(Nc2ccc(N3CCC(NC4CCCC4)CC3)c(OC)c2)nc1NC1CCOC(C(O)CO)C1 (stereo not drawn) [FLIN-2] | 4.98 ± 0.35 nM | 5.54 ± 0.41 nM | 3.62 ± 0.41 nM |
| CCc1nc(C(N)=O)c(Nc2ccc(N3CCC(NC4CC4)CC3)c(OC)c2)nc1NC1CCOC(C(O)CO)C1 (stereo not drawn) [FLIN-1] | 10.2 ± 0.81 nM | 12.2 ± 0.94 nM | 8.74 ± 0.52 nM |
| CCc1nc(C(N)=O)c(Nc2ccc(N3CCC(NC(CC)CC)CC3)c(OC)c2)nc1NC1CCOC(C(O)CO)C1 (stereo not drawn) [FLIN-6] | 6.39 ± 0.47 nM | 8.28 ± 0.54 nM | 5.26 ± 0.42 nM |
| CCCNC1CCN(c2ccc(Nc3nc(NC4CCOC(C(O)CO)C4)c(CC)nc3C(N)=O)cc2OC)CC1 (stereo not drawn) [FLIN-5] | 14.5 ± 0.98 nM | 17.7 ± 1.03 nM | 12.5 ± 1.05 nM |
